{"source": "patent US20040023295A1", "about": "“Methods and systems for analyzing complex biological systems” (priority 2001, published 2004)", "tested_on": "Saccharomyces cerevisiae wild type strain BY4743", "assay": "AF1 combined gene expression and metabolite data mapped to KEGG reactions and pathways", "format": "cell-based", "from_the_text": "In AF1, two different technologies were utilized: gene expression analysis (for examination of mRNA expression) and metabolite analysis. […] As noted previously, existing metabolic databases may be helpful in practicing the methods and systems of the present invention, but many databases include limitations that make their use in data analysis and pathway mapping less than straightforward. […] This caveat to KEGG makes it difficult to pinpoint the correct pathway when attempting to link a gene to a specific pathway. The pathway score indicates how meaningful the mapping is, or how likely it is to be correctly indicative of the pathway involved in the perturbation under examination. […] Degree of perturbation can be calculated, for example, based on a number of standard deviations from a norm, and included in an equation such as the one shown above, so that not only the number of pathways is taken into account, but also accounts for the amount of gene transcript or compound present as compared to a control. […] KEGG links 676 compounds measured in AF1 to a total of 92 pathways. Of the 676 compounds under consideration, 77 were detected in the AF1 samples. […]"}
{"smiles": "C[C@@H]1[C@H](O)[C@@H](C)/C=C/C=C/C=C/C=C/C=C/C=C/C=C/[C@H](O[C@@H]2O[C@H](C)[C@@H](O)[C@H](N)[C@@H]2O)C[C@@H]2O[C@](O)(C[C@@H](O)C[C@@H](O)[C@H](O)CC[C@@H](O)C[C@@H](O)CC(=O)O[C@H]1C)C[C@H](O)[C@H]2C(=O)O", "note": "[Amphoteracin B]", "values": [{"measurement": "# Reactions (title: Number Of Pathways Having at Least One Enzyme and One Compound Perturbed)", "value": 37}, {"measurement": "# Reactions Having an Enzyme and at Least One Compound Perturbed", "value": 54}]}
